According to patent publication US11046672B2, “Indolinones compounds and their use in the treatment of fibrotic diseases” (RESPIVERT LIMITED, priority 2015, dated 2021):
Like-named read-outs stand apart in the source and are kept apart here. One block for each compound: values may come before it.

Legend:
VEGFR2 = VEGFR2 (Homo sapiens (Human), UniProt P35968); test: VEGF165 induced phosphorylation of VEGFR2 in endothelial cells (TeloHAEC, HTRF); type: cell-based; settings: HAEC cells; n = 1 unless otherwise indicated
MRC5 cells = test: Cell viability assay in MRC5 cells (MTT)
PDGFRβ [1] = biological target: T1, PDGFRβ (Homo sapiens (Human), UniProt P09619); settings: read-out: Ki PDGFRβ; mean, n = 2 unless otherwise indicated
PDGFRβ [2] = biological target: T1, PDGFRβ; test: PDGF-BB induced phosphorylation of PDGFRβ in fibroblasts (MRC5 cells, HTRF); type: cell-based; settings: MRC5 cells; n = 1 unless otherwise indicated; read-out: PDGFBB-induced PDGFRβ phosphorylation in MRC5 cells (IC50)
PDGFRβ [3] = biological target: T1, PDGFRβ; test: Duration of action (washout) against PDGF-BB induced phosphorylation of PDGFRβ in human fetal lung fibroblast cells; type: cell-based; settings: MRC-5 cells; for % phos: percentage phosphorylation after wash-out relative to maximal phosphorylation (100%): rhuPDGF-BB, experiments in Groups 1-4
[4] = Pharmacokinetic measurements in mice (intravenous and intra-nasal dosing); type: in vivo; settings: mouse; for concentration at 6 h / concentration at 0.1 h / concentration at 1.5 h / concentration at 24 h / Kp at 6 h / Kp at 0.1 h / Kp at 1.5 h: male, C57BL/6J; for concentration at 6 h / concentration at 0.1 h / concentration at 1.5 h / concentration at 24 h: lung, read-out: lung concentration (nM) at time (h); for concentration at 6 h / concentration at 0.1 h / concentration at 1.5 h / concentration at 24 h / BAV (%): mean; for Kp at 6 h / Kp at 0.1 h / Kp at 1.5 h: lung/plasma
[5] = Pharmacokinetic measurements in rats (intravenous and intra-tracheal dosing); type: in vivo; settings: rat; for concentration at 0.1 h / concentration at 1.5 h / concentration at 24 h / concentration at 6 h: lung, read-out: lung concentration (nM) at time (h); for Kp at 0.1 h / Kp at 1.5 h / Kp at 24 h / Kp at 6 h: lung/plasma
PAMPA permeability assay = type: in vitro ADME; settings: PAMPA; for recovery at 5 hr, 10 μM: pH 7, PAMPA, donor and acceptor compartments; for Papp at 5 h, 10 μM: pH 7, pH 7, 10 μM
[6] = male, CD, iv, i.v. dosing, 0.1 h
[7] = male, CD, iv, i.v. dosing, 1.5 h
[8] = male, CD, iv, i.v. dosing, 24 h
[9] = male, CD, other: intra-tracheal, i.t. dosing, 0.1 h
[10] = male, CD, other: intra-tracheal, i.t. dosing, 1.5 h
[11] = male, CD, other: intra-tracheal, i.t. dosing, 24 h
[12] = male, CD, iv, i.v. dosing, 0.1 h, read-out: lung/plasma ratio at time(h)
[13] = male, CD, iv, i.v. dosing, 1.5 h, read-out: lung/plasma ratio at time(h)
[14] = male, CD, other: intra-tracheal, i.t. dosing, 0.1 h, read-out: lung/plasma conc ratio at time(h)
[15] = male, CD, other: intra-tracheal, i.t. dosing, 1.5 h, read-out: lung/plasma conc ratio at time(h)

T1 sequence (P09619 33-1106): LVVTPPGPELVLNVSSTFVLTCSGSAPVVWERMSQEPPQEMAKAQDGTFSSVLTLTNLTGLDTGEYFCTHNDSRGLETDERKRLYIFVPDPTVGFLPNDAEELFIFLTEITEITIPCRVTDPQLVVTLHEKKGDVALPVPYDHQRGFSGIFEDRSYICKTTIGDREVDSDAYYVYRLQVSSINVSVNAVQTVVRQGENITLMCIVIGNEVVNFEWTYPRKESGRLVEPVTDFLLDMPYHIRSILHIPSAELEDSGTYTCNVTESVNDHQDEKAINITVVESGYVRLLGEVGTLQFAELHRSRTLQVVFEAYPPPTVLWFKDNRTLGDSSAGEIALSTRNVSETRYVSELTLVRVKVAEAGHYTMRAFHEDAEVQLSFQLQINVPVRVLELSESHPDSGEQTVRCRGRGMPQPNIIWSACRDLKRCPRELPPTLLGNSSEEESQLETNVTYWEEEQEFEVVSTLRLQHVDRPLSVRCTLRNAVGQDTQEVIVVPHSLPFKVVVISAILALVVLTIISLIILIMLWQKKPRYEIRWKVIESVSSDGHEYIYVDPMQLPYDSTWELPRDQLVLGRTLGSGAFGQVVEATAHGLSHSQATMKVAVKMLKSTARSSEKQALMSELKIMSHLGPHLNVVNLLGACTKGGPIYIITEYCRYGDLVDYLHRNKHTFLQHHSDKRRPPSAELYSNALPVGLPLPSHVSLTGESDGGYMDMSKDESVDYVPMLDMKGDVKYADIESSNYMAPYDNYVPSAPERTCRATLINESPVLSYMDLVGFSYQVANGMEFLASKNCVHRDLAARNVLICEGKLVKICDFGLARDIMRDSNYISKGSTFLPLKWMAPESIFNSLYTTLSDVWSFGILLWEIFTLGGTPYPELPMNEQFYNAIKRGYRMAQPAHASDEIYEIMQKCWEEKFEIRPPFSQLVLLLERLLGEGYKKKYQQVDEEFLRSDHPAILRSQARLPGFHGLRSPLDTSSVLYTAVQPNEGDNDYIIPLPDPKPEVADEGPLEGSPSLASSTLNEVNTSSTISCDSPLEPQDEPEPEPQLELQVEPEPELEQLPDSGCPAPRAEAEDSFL
VEGFR2, sequence (P35968 20-1356): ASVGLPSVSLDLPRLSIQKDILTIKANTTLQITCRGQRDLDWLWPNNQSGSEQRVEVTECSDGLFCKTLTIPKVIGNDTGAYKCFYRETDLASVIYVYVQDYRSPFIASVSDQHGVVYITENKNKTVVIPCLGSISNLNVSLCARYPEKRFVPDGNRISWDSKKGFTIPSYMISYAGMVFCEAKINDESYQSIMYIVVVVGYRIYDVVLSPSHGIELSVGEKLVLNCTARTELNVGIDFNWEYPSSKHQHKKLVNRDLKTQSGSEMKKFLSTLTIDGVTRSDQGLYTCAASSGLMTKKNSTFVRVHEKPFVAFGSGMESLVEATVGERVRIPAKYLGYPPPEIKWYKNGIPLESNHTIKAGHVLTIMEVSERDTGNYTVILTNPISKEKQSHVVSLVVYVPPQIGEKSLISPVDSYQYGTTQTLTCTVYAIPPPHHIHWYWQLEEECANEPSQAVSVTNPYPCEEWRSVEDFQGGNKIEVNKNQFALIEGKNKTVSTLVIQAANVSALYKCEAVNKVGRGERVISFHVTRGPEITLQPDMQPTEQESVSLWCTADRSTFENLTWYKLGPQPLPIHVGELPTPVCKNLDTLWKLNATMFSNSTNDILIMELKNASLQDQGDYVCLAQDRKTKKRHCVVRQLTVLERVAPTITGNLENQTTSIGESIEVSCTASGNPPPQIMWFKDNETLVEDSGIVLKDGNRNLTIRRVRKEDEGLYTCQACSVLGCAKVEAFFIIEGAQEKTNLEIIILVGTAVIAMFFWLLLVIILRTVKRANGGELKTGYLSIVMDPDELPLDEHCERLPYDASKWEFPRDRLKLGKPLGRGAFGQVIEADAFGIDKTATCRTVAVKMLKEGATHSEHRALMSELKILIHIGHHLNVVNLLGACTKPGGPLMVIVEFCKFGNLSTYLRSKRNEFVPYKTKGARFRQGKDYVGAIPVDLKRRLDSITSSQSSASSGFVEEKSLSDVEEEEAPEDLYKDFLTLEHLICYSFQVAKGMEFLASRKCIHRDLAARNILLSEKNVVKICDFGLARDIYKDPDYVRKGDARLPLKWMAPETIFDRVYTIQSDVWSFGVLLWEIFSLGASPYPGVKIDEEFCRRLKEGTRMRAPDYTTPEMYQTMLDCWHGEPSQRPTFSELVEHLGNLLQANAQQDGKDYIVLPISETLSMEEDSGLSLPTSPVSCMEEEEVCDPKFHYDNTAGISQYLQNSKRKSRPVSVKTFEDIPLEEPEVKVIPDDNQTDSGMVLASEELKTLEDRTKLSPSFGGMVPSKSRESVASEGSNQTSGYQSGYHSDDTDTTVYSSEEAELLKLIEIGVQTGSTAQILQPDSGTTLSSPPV

IC50 (VEGFR2): 32.2 nM
Compound: COC(=O)c1ccc2c(c1)NC(=O)/C2=C(\Nc1ccc(C(=O)N(C)OC)cc1)c1ccccc1 [Example 1, (Z)-Methyl 3-(((4-(methoxy(methyl)carbamoyl)phenyl)amino)(phenyl)methylene)-2-oxoindoline-6-carboxylate]
Cell viability at 100 nM (%) (MRC5 cells): 116.6%
Cell viability at 300 nM (%) (MRC5 cells): 97 (n = 2) %
Cell viability at 1000 nM (%) (MRC5 cells): 87 (n = 2) %

Ki (PDGFRβ [1]): 8.31 nM
IC50 (PDGFRβ [2]): 6.95 nM
% phos: percentage phosphorylation after wash-out relative to maximal phosphorylation (100%) (PDGFRβ [3]): 31.6%
Duration of action as inhibitors of PDGFRβ compared with nintedanib (PDGFRβ [3]; wash-out): longer duration of action
concentration at 6 h ([4]; iv, 0.2 mg/kg, i.v. dosing, 6 h): 46 nM
concentration at 0.1 h ([4]; iv, i.v. dosing, 0.1 h): 580 nM
concentration at 1.5 h ([4]; iv, i.v. dosing, 1.5 h): 168 nM
concentration at 24 h ([4]; iv, i.v. dosing, 24 h): 13 nM
concentration at 0.1 h ([4]; other: intra-nasal, i.n. dosing, 0.1 h): 1490 nM
concentration at 1.5 h ([4]; other: intra-nasal, i.n. dosing, 1.5 h): 986 nM
concentration at 6 h ([4]; other: intra-nasal, i.n. dosing, 6 h): 258 nM
concentration at 24 h ([4]; other: intra-nasal, i.n. dosing, 24 h): 84 nM
Kp at 6 h ([4]; iv, 0.2 mg/kg, i.v. dosing, 6 h, read-out: lung/plasma ratio at time(h)): 65
Kp at 0.1 h ([4]; iv, i.v. dosing, 0.1 h, read-out: lung/plasma ratio at time(h)): 11
Kp at 1.5 h ([4]; iv, i.v. dosing, 1.5 h, read-out: lung/plasma ratio at time(h)): 40
Kp at 0.1 h ([4]; other: intra-nasal, i.n. dosing, 0.1 h, read-out: lung/plasma conc ratio at time(h)): 79
Kp at 1.5 h ([4]; other: intra-nasal, i.n. dosing, 1.5 h, read-out: lung/plasma conc ratio at time(h)): 398
Kp at 6 h ([4]; other: intra-nasal, i.n. dosing, 6 h, read-out: lung/plasma conc ratio at time(h)): 607
Lung conc i.n./i.v. Ratio at time (h) ([4]; 0.1 h): 2.6
Lung conc i.n./i.v. Ratio at time (h) ([4]; 1.5 h): 5.9
Lung conc i.n./i.v. Ratio at time (h) ([4]; 6 h): 5.6
Lung conc i.n./i.v. Ratio at time (h) ([4]; 24 h): 6.5
BAV (%) ([4]; i.n. dosing (i.n. dose 1 nintedanib, 0.2 examples)): ~50%
BAL % administered dose at time (h) ([4]; i.n. dosing, 0.1 h): 1%
BAL % administered dose at time (h) ([4]; i.n. dosing, 1.5 h): 0.3%
BAL % administered dose at time (h) ([4]; i.n. dosing, 6 h): 0.1%
BAL % administered dose at time (h) ([4]; i.n. dosing, 24 h): 0.04%
BAL % administered dose at time (h) ([4]; i.v. dosing, 0.1 h): 0.1%
BAL % administered dose at time (h) ([4]; i.v. dosing, 1.5 h): 0.01%
BAV (%) ([4]; oral dosing (oral dose 60 mg/kg nintedanib, 10 mg/kg examples)): <5%
concentration at 0.1 h [5, 6]: 2990 nM
concentration at 1.5 h [5, 7]: 1880 nM
concentration at 24 h [5, 8]: 173 nM
concentration at 0.1 h [5, 9]: 30400 nM
concentration at 1.5 h [5, 10]: 11900 nM
concentration at 24 h [5, 11]: 4720 nM
Kp at 0.1 h [5, 12]: 103
Kp at 1.5 h [5, 13]: 315
Kp at 24 h ([5]; male, CD, iv, i.v. dosing, 24 h, read-out: lung/plasma ratio at time(h)): 198
Kp at 0.1 h [5, 14]: 288
Kp at 1.5 h [5, 15]: 2890
Kp at 24 h ([5]; male, CD, other: intra-tracheal, i.t. dosing, 24 h, read-out: lung/plasma conc ratio at time(h)): 3280
MRT ([5]; male, CD, plasma, iv, i.v. dosing): 7.9 h
clearance ([5]; male, CD, plasma, iv, i.v. dosing (i.v. dose 0.1-0.5 per compound)): 132 mL/min/kg
Vd ([5]; male, CD, plasma, iv, i.v. dosing, read-out: Vss): 63 L/kg
half-life ([5]; male, CD, plasma, iv, i.v. dosing, read-out: t½ (converted)): 8.1 h
Lung conc i.t./i.v. Ratio at time (h) ([5]; 0.1 h): 10.2
Lung conc i.t./i.v. Ratio at time (h) ([5]; 1.5 h): 6.3
Lung conc i.t./i.v. Ratio at time (h) ([5]; 24 h): 27.3
i.t. BAV (%) ([5]; i.t. dosing (i.t. dose 0.1-0.5 per compound)): 115%
BAL % administered dose at time (h) ([5]; i.t. dosing, 0.1 h): 6%
BAL % administered dose at time (h) ([5]; i.t. dosing, 1.5 h): 3%
BAL % administered dose at time (h) ([5]; i.t. dosing, 24 h): 0.1%
BAL % administered dose at time (h) ([5]; i.v. dosing, 0.1 h): 0.06%
BAL % administered dose at time (h) ([5]; i.v. dosing, 1.5 h): 0.03%
BAL % administered dose at time (h) ([5]; i.v. dosing, 24 h): BQL
Oral BAV (%) ([5]; oral dose 3 mg/kg): <1%
recovery at 5 hr, 10 μM (PAMPA permeability assay): 42%
Papp at 5 h, 10 μM (PAMPA permeability assay): 0.00649 ×10⁻⁶ cm/s
Compound: COC(=O)c1cc2c(cc1C)/C(=C(/Nc1ccc(C(=O)NOCCN3CCN(C)CC3)cc1)c1ccccc1)C(=O)N2 [Example 6, (Z)-Methyl 5-methyl-3-(((4-((2-(4-methylpiperazin-1-yl)ethoxy)carbamoyl)phenyl)amino)(phenyl)methylene)-2-oxoindoline-6-carboxylate]
Cell viability at 100 nM (%) (MRC5 cells): 98.1%
Cell viability at 300 nM (%) (MRC5 cells): 88.5%
Cell viability at 1000 nM (%) (MRC5 cells): 77%

Ki (PDGFRβ [1]): 6.6 nM
IC50 (PDGFRβ [2]): 10.4 nM
% phos: percentage phosphorylation after wash-out relative to maximal phosphorylation (100%) (PDGFRβ [3]): 84.7%
concentration at 6 h ([5]; male, CD, iv, 0.1 mg/kg, i.v. dosing, 6 h): 69 nM
concentration at 0.1 h [5, 6]: 329 nM
concentration at 1.5 h [5, 7]: 172 nM
concentration at 24 h [5, 8]: 30 nM
concentration at 0.1 h [5, 9]: 2100 nM
concentration at 1.5 h [5, 10]: 881 nM
concentration at 6 h ([5]; male, CD, other: intra-tracheal, i.t. dosing, 6 h): 1000 nM
concentration at 24 h [5, 11]: 519 nM
Kp at 6 h ([5]; male, CD, iv, 0.1 mg/kg, i.v. dosing, 6 h, read-out: lung/plasma ratio at time(h)): 10
Kp at 0.1 h [5, 12]: 17
Kp at 1.5 h [5, 13]: 15
Kp at 0.1 h [5, 14]: 233
Kp at 1.5 h [5, 15]: 114
Kp at 6 h ([5]; male, CD, other: intra-tracheal, i.t. dosing, 6 h, read-out: lung/plasma conc ratio at time(h)): 114
Lung conc i.t./i.v. Ratio at time (h) ([5]; 0.1 h): 6
Lung conc i.t./i.v. Ratio at time (h) ([5]; 1.5 h): 5
Lung conc i.t./i.v. Ratio at time (h) ([5]; 6 h): 15
Lung conc i.t./i.v. Ratio at time (h) ([5]; 24 h): 17
BAL % administered dose at time (h) ([5]; i.t. dosing, 0.1 h): 5.3%
BAL % administered dose at time (h) ([5]; i.t. dosing, 1.5 h): 0.2%
BAL % administered dose at time (h) ([5]; i.t. dosing, 6 h): 0.3%
BAL % administered dose at time (h) ([5]; i.t. dosing, 24 h): 0.1%
BAL % administered dose at time (h) ([5]; i.v. dosing, 0.1 h): BLQ
BAL % administered dose at time (h) ([5]; i.v. dosing, 1.5 h): BLQ
BAL % administered dose at time (h) ([5]; i.v. dosing, 6 h): BLQ
BAL % administered dose at time (h) ([5]; i.v. dosing, 24 h): BLQ
recovery at 5 hr, 10 μM (PAMPA permeability assay): 58.1%
Papp at 5 h, 10 μM (PAMPA permeability assay): 0.0245 ×10⁻⁶ cm/s
Compound: COC(=O)c1cc2c(cc1C)/C(=C(/Nc1ccc(C(=O)NOCCN3CCN(CCO)CC3)cc1)c1ccccc1)C(=O)N2 [Example 7, (Z)-Methyl 3-(((4-((2-(4-(2-hydroxyethyl)piperazin-1-yl)ethoxy)carbamoyl)phenyl)amino)(phenyl)methylene)-5-methyl-2-oxoindoline-6-carboxylate]
Cell viability at 100 nM (%) (MRC5 cells): 90.7%
Cell viability at 300 nM (%) (MRC5 cells): 98%
Cell viability at 1000 nM (%) (MRC5 cells): 86.8%

IC50 (VEGFR2): 32.2 nM
recovery at 5 hr, 10 μM (PAMPA permeability assay): 59.4%
Papp at 5 h, 10 μM (PAMPA permeability assay): 0.0679 ×10⁻⁶ cm/s
Compound: COC(=O)c1cc2c(cc1C)/C(=C(/Nc1ccc(C(=O)NOCCCN3CCN(C)CC3)cc1)c1ccccc1)C(=O)N2 [Example 64]
Cell viability at 100 nM (%) (MRC5 cells): 86.5%
Cell viability at 300 nM (%) (MRC5 cells): 88.6%
Cell viability at 1000 nM (%) (MRC5 cells): 73.7%
